Numbers after ± are expanded uncertainties.
What was measured:
[1] = 101.33 kPa, Liquid
[2] = xn = mol fraction of the nth substance listed; details: 283.15 K; 101 kPa; Liquid; Pycnometric method; x2 = 0

mass density ([1]; 283.15 K) [kg/m3]	mass density ([1]; 288.15 K) [kg/m3]	mass density ([1]; 293.15 K) [kg/m3]	mass density ([1]; 298.15 K) [kg/m3]	mass density ([1]; 303.15 K) [kg/m3]	mass density ([1]; 308.15 K) [kg/m3]	mass density [2] [kg/m3]	Compound
958.87 ± 1.2	955.23 ± 1.2	951.68 ± 1.2	948.08 ± 1.2	944.54 ± 1.2	940.88 ± 1.2	–	CCCCC(O)CO (configuration not stated) [1,2-hexanediol]
978.41 ± 0.69	975.51 ± 0.66	972.31 ± 0.64	968.91 ± 0.66	965.51 ± 0.67	962.15 ± 0.69	–	CC(O)CCCCO (configuration not stated) [1,5-hexanediol]
968.85 ± 0.68	965.56 ± 0.65	962.17 ± 0.63	959.09 ± 0.65	955.72 ± 0.67	952.39 ± 0.68	–	CC(O)CCC(C)O (configuration not stated) [2,5-hexanediol]
–	–	–	–	–	–	999.7 ± 0.3	O [water] + CC(O)CCC(C)O
–	–	–	–	–	–	999.7 ± 0.3	O [water] + CC(O)CCCCO
–	–	–	–	–	–	999.69 ± 0.3	O [water] + CCCCC(O)CO
–	–	–	–	–	–	999.7 ± 0.3	O [water] + OCCCCCCO
